Counter-ions that a name gives are not always drawn.
Target: hTRPA1 (Homo sapiens, UniProt O75762)
Test: Dose response calcium flux (FLIPR) assay, ChanTest hTRPA1-CHO stably transfected cell line, cinnamaldehyde agonist
Assay type: cell-based
Details: CHO-K1 Tet-On hTRPA1 cells, 100 uM cinnamaldehyde agonist, 30 min preincubation
Description: Dose Response Assay:ChanTest hTRPA1-CHO Stably Transfected Cell Line
CHO-K1 Tet-On_HOMSA_TRPA1_Clone_20
Growth Media for CHO-K1 Tet-On_HOMSA_TRPA1_Clone_20 • Ham's F-12 with 10% tetracycline-free FBS • 1× penicillin-streptomycin • 1× glutamax • 0.01 mg/ml Blasticidin • 0.40 mg/ml Zeocin • The cell line doubling rate was ˜15 h. […] Experiments were run at 24 h post induction.
Plating Conditions CHOK1/TRPA1 Cells: • Harvested cells with 0.025% trypsin/EDTA. • Resuspended cells in growth media without selection antibiotics. • Measured cell density and diluted to 2.4×10^5 cells/ml in media containing 1 ug/ml Doxycycline Plate 25 ul/well into 384 well black/clear tissue culture-treated plates. • Incubated overnight at 37° C.
Replacement Buffer: Hank's Balanced Salt Solution, 20 mM HEPES along with 0.005% BSA and 2× Probenecid
Dye Loading Buffer: Cal-3 NW Calcium dye was prepared by dissolving the contents of one vial with […] Hank's Balanced Salt Solution containing 20 mM HEPES.
AP-18, stock 10 mM, prepare 3.5× compound dilution in a Compound Buffer (HBSS/20 mM HEPES/0.005% BSA)—final concentration 10 uM.
Preparation of Cinnamaldehyde (Agonist Addition): • FW=132.16 • Specific gravity=1.046 gm/cc • 1.32 gm/1.046 gm/cc=1.26 ml of stock • Add 1.74 ml DMSO=3.3 M stock • Working solution 4.5× (final 100 uM in Compound Buffer: HBSS/20 mM HEPES/0.005% BSA)
Compounds dilutions were prepared from 5 or 10 mM stock (100% DMSO): • Adjustments of volumes and concentrations were made at time of titration to reflect desired final assay concentrations. • Compounds were tested at either 20 μM three folds dilution 11 steps out or 30 μM two folds dilution 11 steps out. • 3 μl of diluted compound were transferred into Weidmann 384-well plate in duplicates side-by-side. • Compound plates were resuspended with 100 ul of HBSS/20 mM HEPES/0.005% BSA buffer (Compound Buffer): • column 1A-H: buffer/DMSO (bk) • column 2A-H: AP-18 (control antagonist for CHOK1 TRPA1 cells) • column 1I-P: ATP (control for CHOK1 teton cells) • column 2I-P: 2APB (control antagonist for CHOK1/TRPM8 cells).
Growth media was removed from the cell plates (20 ul) and 20 μl of the Replacement Buffer was added followed by addition of 25 μl of diluted dye. All three steps were performed using a Plate Washer BioTek 407. The plates were then incubated for 30′ at RT.
After incubation, both the cell and compound plates were brought to the FLIPR and 20 μl of the diluted compounds/antagonist/bk were transferred to the cell plates by the FLIPR. Plates were then incubated for 30′ at room temperature. After 30′ incubation, plates were returned to the FLIPR and 20 μl of 4.5× Cinnamaldehyde was added to the cell plates. During the compound addition as well as agonist addition, fluorescence readings were taken simultaneously from all 384 wells of the cell plate every 1.5 seconds. Five readings were taken to establish a stable baseline, then 20 μl of sample was rapidly (30 ul/sec) and simultaneously added to each well of the cell plate. The fluorescence was continuously monitored before, during and after sample/agonist addition for a total elapsed time of 100 seconds (compound addition) and 120 seconds (agonist addition). Responses (increase in peak fluorescence) in each well following agonist addition was determined. The initial fluorescence reading from each well, prior to ligand stimulation, was used a zero baseline value for the data from that well.

hTRPA1, sequence (O75762 whole entry): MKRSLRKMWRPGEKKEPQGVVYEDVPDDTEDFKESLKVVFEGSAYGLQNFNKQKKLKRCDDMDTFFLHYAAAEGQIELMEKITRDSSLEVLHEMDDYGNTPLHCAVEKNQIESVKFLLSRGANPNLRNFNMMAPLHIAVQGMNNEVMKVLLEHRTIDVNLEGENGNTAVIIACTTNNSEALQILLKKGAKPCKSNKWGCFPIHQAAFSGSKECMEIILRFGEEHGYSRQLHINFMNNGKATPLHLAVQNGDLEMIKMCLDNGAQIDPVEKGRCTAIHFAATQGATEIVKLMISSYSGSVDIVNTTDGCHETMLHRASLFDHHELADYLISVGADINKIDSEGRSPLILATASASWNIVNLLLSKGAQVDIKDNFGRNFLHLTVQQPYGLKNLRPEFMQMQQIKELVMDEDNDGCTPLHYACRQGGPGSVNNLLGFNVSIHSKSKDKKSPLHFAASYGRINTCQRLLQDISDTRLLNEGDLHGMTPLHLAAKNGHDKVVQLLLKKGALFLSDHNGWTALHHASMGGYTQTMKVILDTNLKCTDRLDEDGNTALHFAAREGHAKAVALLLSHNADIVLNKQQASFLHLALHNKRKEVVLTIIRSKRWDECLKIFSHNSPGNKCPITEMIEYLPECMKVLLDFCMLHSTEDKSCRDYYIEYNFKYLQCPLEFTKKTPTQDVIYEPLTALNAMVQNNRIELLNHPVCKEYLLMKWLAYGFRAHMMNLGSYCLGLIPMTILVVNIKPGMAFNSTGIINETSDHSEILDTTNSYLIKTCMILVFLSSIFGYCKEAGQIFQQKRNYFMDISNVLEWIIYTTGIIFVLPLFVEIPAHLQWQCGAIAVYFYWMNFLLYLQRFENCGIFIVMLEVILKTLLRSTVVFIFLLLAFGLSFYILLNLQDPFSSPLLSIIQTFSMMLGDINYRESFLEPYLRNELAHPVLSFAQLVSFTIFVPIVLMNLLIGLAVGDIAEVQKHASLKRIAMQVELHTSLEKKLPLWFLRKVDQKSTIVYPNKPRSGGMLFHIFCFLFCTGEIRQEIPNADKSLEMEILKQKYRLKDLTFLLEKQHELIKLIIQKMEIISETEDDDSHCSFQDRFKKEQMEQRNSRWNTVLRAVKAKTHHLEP

| Structure (SMILES) | IC50 |
| --- | --- |
| O=C(Nc1ccc(Cl)c(F)c1)O[C@@H](CN1CCO[C@H](c2ccc(C(F)(F)F)nc2)C1)C(F)(F)F [Example 22, (4-Chloro-3-fluorophenyl)-carbamic acid (S)-2,2,2-trifluoro-1-[(R)-2-(6-trifluoromethyl-pyridin-3-yl)-morpholin-4-ylmethyl]-ethyl ester] | 64.3 nM |
| COc1cccc(C2CN(C[C@H](OC(=O)Nc3ccc(Cl)cc3)C(F)(F)F)CCS2(=O)=O)c1 (stereo partly drawn) [Example 17, (4-Chlorophenyl)-carbamic acid (S)-2,2,2-trifluoro-1-[2-(3-methoxyphenyl)-1,1-dioxo-1λ^6-thiomorpholin-4-ylmethyl]-ethyl ester] | 390 nM |
| O=C(Nc1ccc(Cl)c(F)c1)O[C@@H](CN1CCO[C@H](c2cccc(Cl)c2)C1)C(F)(F)F [Example 6, (4-Chloro-3-fluorophenyl)-carbamic acid (S)-1-[(R)-2-(3-chlorophenyl)-morpholin-4-ylmethyl]-2,2,2-trifluoroethyl ester hydrochloride] | 50.5 nM |
| O=C(Nc1ccc(Cl)c(F)c1)O[C@@H](CN1CCO[C@H](c2ccnc(C(F)(F)F)n2)C1)C(F)(F)F [Example 24, (4-Chloro-3-fluorophenyl)-carbamic acid (S)-2,2,2-trifluoro-1-[(S)-2-(2-trifluoromethylpyrimidin-4-yl)-morpholin-4-ylmethyl]-ethyl ester hydrochloride] | 71.1 nM |
| Cc1ccc(NC(=O)O[C@@H](CN2CCOC(c3ccc(C(F)(F)F)cc3)C2)C(F)(F)F)cc1Cl (stereo partly drawn) [Example 33, (3-Chloro-4-methylphenyl)-carbamic acid (S)-2,2,2-trifluoro-1-[2-(4-trifluoromethylphenyl)-morpholin-4-ylmethyl]-ethyl ester hydrochloride] | 1630 nM |
| O=C(Nc1ccc(Cl)c(F)c1)O[C@@H](CN1CCS(=O)(=O)[C@@H](c2cccc(C(F)(F)F)c2)C1)C(F)(F)F (single isomer, unassigned) [Example 21] | 1100 nM |
| O=C(Nc1ccc(Cl)c(F)c1)O[C@@H](CN1CCO[C@H](c2cccc(Cl)c2)C1)C(F)(F)F [Example 7, (4-Chloro-3-fluorophenyl)-carbamic acid (S)-1-[(R)-2-(3-chlorophenyl)-morpholin-4-ylmethyl]-2,2,2-trifluoroethyl ester hydrochloride] | 47 nM |
| COc1cccc([C@@H]2CN(C[C@H](OC(=O)Nc3ccc(Cl)cc3)C(F)(F)F)CCO2)c1 [Example 14, (4-Chlorophenyl)-carbamic acid (S)-2,2,2-trifluoro-1-[(R)-2-(3-methoxyphenyl)-morpholin-4-ylmethyl]-ethyl ester] | 36.1 nM |
| O=C(Nc1ccc(Cl)c(F)c1)O[C@@H](CN1CCO[C@@H](c2ccc(C(F)(F)F)cc2)C1)C(F)(F)F [Example 32, (4-Chloro-3-fluorophenyl)-carbamic acid (S)-2,2,2-trifluoro-1-[(S)-2-(4-trifluoromethylphenyl)-morpholin-4-ylmethyl]-ethyl ester hydrochloride] | 451 nM |
| O=C(Nc1ccc(Cl)cc1)O[C@@H](CN1CCO[C@H](c2cccc(C(F)(F)F)c2)C1)C(F)(F)F [Example 11, (4-Chlorophenyl)-carbamic acid (S)-2,2,2-trifluoro-1-[(R)-2-(3-trifluoromethylphenyl)-morpholin-4-ylmethyl]-ethyl ester hydrochloride] | 5.58 nM |
| O=C(Nc1ccc(Cl)cc1)O[C@@H](CN1CCS(=O)(=O)[C@H](c2cccc(C(F)(F)F)c2)C1)C(F)(F)F [Example 18, (4-Chlorophenyl)-carbamic acid (S)-1-[(R)-1,1-dioxo-2-(3-trifluoromethylphenyl)-1λ^6-thiomorpholin-4-ylmethyl]-2,2,2-trifluoroethyl ester] | 42.5 nM |
| O=C(Nc1ccc(Cl)c(F)c1)O[C@@H](CN1CCO[C@H](c2ccc(F)c(Cl)c2)C1)C(F)(F)F [Example 5, (4-Chloro-3-fluorophenyl)-carbamic acid (S)-1-[(R)-2-(3-chloro-4-fluorophenyl)-morpholin-4-ylmethyl]-2,2,2-trifluoroethyl ester hydrochloride] | 30.7 nM |
| O=C(Nc1ccc(Cl)cc1)O[C@@H](CN1CCO[C@H](c2ccc(F)c(C(F)(F)F)c2)C1)C(F)(F)F [Example 1, (4-Chlorophenyl)-carbamic acid (S)-2,2,2-trifluoro-1-[(R)-2-(4-fluoro-3-trifluoromethylphenyl)-morpholin-4-ylmethyl]-ethyl ester hydrochloride] | 4.91 nM |
| O=C(Nc1ccc(Cl)cc1)O[C@@H](CN1CCO[C@@H](c2ccc(C(F)(F)F)cc2)C1)C(F)(F)F (single isomer, unassigned) [Example 30, hydrochloride] | 198 nM |

The remaining lines, values ahead:

| IC50 | Structure (SMILES) |
| --- | --- |
| 130 nM | O=C(Nc1ccc(Cl)cc1)O[C@@H](CN1CCOC(c2cccc(F)c2)C1)C(F)(F)F (stereo partly drawn) [Example 47, (4-Chlorophenyl)-carbamic acid (S)-2,2,2-trifluoro-1-[2-(3-fluorophenyl)-morpholin-4-ylmethyl]-ethyl ester hydrochloride] |
| 244 nM | COc1ccc(C[C@@H]2CN(C[C@H](OC(=O)Nc3ccc(Cl)cc3)C(F)(F)F)CCO2)cn1 [Example 50, (4-Chloro-phenyl)-carbamic acid (S)-2,2,2-trifluoro-1-[(R)-2-(6-methoxy-pyridin-3-ylmethyl)-morpholin-4-ylmethyl]ethyl ester] |
| 92.2 nM | O=C(Nc1ccc(Cl)c(F)c1)O[C@@H](CN1CCO[C@H](c2ccc(F)cc2)C1)C(F)(F)F [Example 36, (4-Chloro-3-fluorophenyl)carbamic acid (S)-1-[(R)-2-(4-fluorophenyl)-morpholin-4-ylmethyl]-2,2,2-trifluoroethyl ester hydrochloride] |
| 458 nM | Cc1ccc(NC(=O)O[C@@H](CN2CCOC(c3ccc(F)c(F)c3)C2)C(F)(F)F)cc1 (stereo partly drawn) [Example 37, p-Tolylcarbamic acid (S)-1-[2-(3,4-difluorophenyl)-morpholin-4-ylmethyl]-2,2,2-trifluoroethyl ester hydrochloride] |
| 115 nM | O=C(Nc1ccc(Cl)cc1)O[C@@H](CN1CCO[C@H](Cc2cccs2)C1)C(F)(F)F [Example 49, (4-Chlorophenyl)-carbamic acid (S)-2,2,2-trifluoro-1-((R)-2-thiophen-2-ylmethyl-morpholin-4-ylmethyl)-ethyl ester hydrochloride] |
| 10.3 nM | O=C(Nc1ccc(Cl)cc1)O[C@@H](CN1CCOC(c2cc(Cl)cc(Cl)c2)C1)C(F)(F)F (stereo partly drawn) [Example 44, (4-Chlorophenyl)-carbamic acid (S)-2,2,2-trifluoro-1-[2-(3,5-dichlorophenyl)-morpholin-4-ylmethyl]-ethyl ester hydrochloride] |
| 73.8 nM | O=C(C[C@@H](CN1CCO[C@H](c2cccc(C(F)(F)F)c2)C1)C(F)(F)F)Nc1ccc(Cl)c(F)c1 [Example 39, (S)—N-(4-chloro-3-fluorophenyl)-4,4,4-trifluoro-3-[(R)-2-(3-trifluoromethylphenyl)-morpholin-4-ylmethyl]-butyramide] |
| 398 nM | COc1cccc(C[C@@H]2CN(C[C@H](OC(=O)Nc3ccc(Cl)cc3)C(F)(F)F)CCO2)n1 [Example 51, (4-Chlorophenyl)-carbamic acid (S)-2,2,2-trifluoro-1-[(R)-2-(6-methoxy-pyridin-2-ylmethyl)-morpholin-4-ylmethyl]ethyl ester] |

From patent US9353096B2, “Substituted phenylcarbamate compounds” (Hoffmann-La Roche Inc., priority 2012, dated 2016)
